Measurements as given in patent publication US20230348376A1 (TEIJIN PHARMA LIMITED, priority 2020, published 2023).

Assays:
[1] = system: rat oligodendrocyte progenitor cells; assay: Promotive activity of rat oligodendrocyte progenitor cell differentiation-1 (MBP gene expression, mRNA); type: cell-based; details: Rattus norvegicus, Oligodendrocyte progenitor cell, 96 h, read-out: promotive activity at T3 base (MBP gene expression; DMSO 0%, T3 100%), 4 days, MBP/β actin mRNA
Experimental: Regarding vitamin D derivatives, which was confirmed to act on the vitamin D receptor (VDR) in Example 352, the promotive activity of oligodendrocyte progenitor cell (OPC) differentiation was evaluated by MBP gene expression (mRNA).
A forebrain obtained from SD rat (Charles River Japan, 1 day old) was crushed with 70 μm Cell Strainer (Falcon #352350), and a cell suspension was prepared by collecting the cells in oligodendrocyte progenitor cell separation medium (20% FBS/2 mM Glutamax (Gibco #35050-061)/i mM sodium pyruvate (Gibco #11360-070)/1% penicillin-streptomycin (Invitrogen #15140-122)/DMEM (Gibco #11960-044)). The cell suspension was seeded in a poly-D-lysine coated T75 flask (Thermo Fisher Scientific #132704) and cultured for about 2 weeks. After culturing, the flask was shaken using a rotary shaker ([…] #WB-101SRC) for about 1 hour (37° C., 100 rpm), and the supernatant was discarded to remove microglia. Subsequently, oligodendrocyte progenitor cell separation medium was added to the flask, and the mixture was similarly shaken for about 22 hours (37° C., 200 rpm), and the supernatant was collected to prepare oligodendrocyte progenitor cells.
The oligodendrocyte progenitor cell prepared was suspended in a differentiation medium (2% B27 (Thermo Fisher Scientific, Inc. #17504-044)/1% penicillin-streptomycin (Invitrogen Corporation #15140-122)/10 ng/mL CNTF (PeproTech Inc. #AF-450-13)/DMEM (Gibco #11960-044)), and seeded on a 96-well plate coated with poly-L-ornithine (FUJIFILM Wako Pure Chemical Corporation #163-27421) under the condition of 0.65×10^4 cells/well, and on a 384-well plate under the condition of 2×10^3 cells/well using an automatic dispensing system (LABCYTE #Echo555). […] After culturing, the cells seeded on the 96-well plate were subjected to immunostaining against MBP using following methods: fixation (4% paraformaldehyde solution, 30 minutes, room temperature), PBS washing, membrane permeation treatment (0.1% Trion X-100 (SIGMA #X100-100ML)/PBS, 3 minutes, room temperature), blocking (3% BSA (SIGMA #A9647-10G)/PBS, 1 hour, room temperature), primary antibody reaction (MBP antibody (abcam plc #ab40390), 2.5 μg/mL, 4° C., 24 hours), PBS washing, secondary antibody reaction (Alexa488 anti-rabbit IgG (Thermo Fisher Scientific, Inc. #A-11034), 5 μg/mL, room temperature, 1 hour), PBS washing, and nuclear staining (Hoechst33342 (DOJINDO #NU043), 10 μg/mL, room temperature, 5 minutes). Subsequently, images of each well were acquired using a fluorescence microscope (KEYENCE CORPORATION #BZ-X800), the number of MBP-positive cells and Hoechst 33342-positive cells were measured using an image analysis application (KEYENCE CORPORATION #BZ-X800 Analyzer), and then the ratio (the number of MBP-positive cells/the number of Hoechst33342-positive cells) was calculated. The cells seeded on the 384-well plate were subjected to real-time PCR using Cells-to-CT 1-Step TaqMan Kit (Thermo Fisher Scientific, Inc. #A25602) and QuantStudio 12K Flex Real-Time PCR System (Thermo Fisher Scientific, Inc. #4472380). The experiment was performed in accordance with the protocol attached to the kit. MBP (Thermo Fisher Scientific, Inc. #Assay ID Rn00690616_ml) and β actin (Thermo Fisher Scientific, Inc. #Assay ID Rn00667869_ml) were used as primers, and the expression levels of each were measured and the ratio (MBP/β actin) was calculated.

human VDR = target: T1, human VDR (Homo sapiens, UniProt P11473); assay: Evaluation of VDR transcription activity in human osteoblasts (HOS cells), luciferase reporter; details: Activity (EC50, VDR transcription activity), HOS cells transfected with human VDR, human RXRα and DR3 luciferase reporter; 21 hours
T1 sequence (P11473 1-427): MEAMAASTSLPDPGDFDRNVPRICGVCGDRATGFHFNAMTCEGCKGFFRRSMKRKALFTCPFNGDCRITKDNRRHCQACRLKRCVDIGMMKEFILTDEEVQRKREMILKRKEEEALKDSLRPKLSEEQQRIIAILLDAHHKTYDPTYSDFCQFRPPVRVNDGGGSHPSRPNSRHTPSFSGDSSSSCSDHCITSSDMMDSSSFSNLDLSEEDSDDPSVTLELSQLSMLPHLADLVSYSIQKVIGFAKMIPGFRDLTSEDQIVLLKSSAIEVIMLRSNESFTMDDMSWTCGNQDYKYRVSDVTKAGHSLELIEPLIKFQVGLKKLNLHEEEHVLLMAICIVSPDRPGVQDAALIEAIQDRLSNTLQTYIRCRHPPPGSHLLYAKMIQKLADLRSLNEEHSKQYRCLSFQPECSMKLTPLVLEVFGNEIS
T1 sequence (P19793 1-462 partner): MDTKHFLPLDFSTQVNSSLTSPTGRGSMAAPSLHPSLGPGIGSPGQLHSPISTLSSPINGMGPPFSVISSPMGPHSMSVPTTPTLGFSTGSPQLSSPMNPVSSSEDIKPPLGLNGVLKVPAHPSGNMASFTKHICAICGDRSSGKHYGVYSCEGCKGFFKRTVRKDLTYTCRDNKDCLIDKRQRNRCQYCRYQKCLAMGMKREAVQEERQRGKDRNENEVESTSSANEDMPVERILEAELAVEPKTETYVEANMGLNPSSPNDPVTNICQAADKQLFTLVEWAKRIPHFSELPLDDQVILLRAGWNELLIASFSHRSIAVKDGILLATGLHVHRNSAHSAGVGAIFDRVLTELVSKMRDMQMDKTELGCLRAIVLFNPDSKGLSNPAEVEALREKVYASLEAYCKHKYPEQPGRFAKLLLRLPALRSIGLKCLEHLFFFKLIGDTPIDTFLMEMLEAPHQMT

EC50 (human VDR) [nM]	Structure (SMILES)	activation at 1 µM [1] [%]
10 to 100	C=C1[C@H](O)CC(=C/C=C2\CCC[C@]3(C)[C@@H]([C@H](C)CN4C[C@@H](C)OC[C@H]4C)CC[C@@H]23)C[C@H]1O [Compound D017, (1R,3R)-5-(2-((1R,3aS,7aR,E)-1-((S)-1-((2R,5R)-2,5-dimethylmorpholino)propan-2-yl)-7a-methyloctahydro-4H-inden-4-ylidene)ethylidene)-2-methylenecyclohexane-1,3-diol]	≥ 20
10 to 100	COC1(C)CCCN(C[C@@H](C)[C@H]2CC[C@H]3/C(=C/C=C4C[C@@H](O)C[C@H](O)C4)CCC[C@]23C)C1 (single isomer, unassigned) [Compound C045a]	≥ 20
10 to 100	C[C@H](CN1CC[C@@H](OC(F)(F)F)C1)[C@H]1CC[C@H]2/C(=C/C=C3CC(O)C[C@H](O)C3)CCC[C@]12C (stereo in doubt) [Compound B070, (1R,3S)-5-(2-((1R,3aS,7aR,E)-7a-methyl-1-((S)-1-((R)-3-(trifluoromethoxy)pyrrolidin-1-yl)propan-2-yl)octahydro-4H-inden-4-ylidene)ethylidene)cyclohexane-1,3-diol]	≥ 20
10 to 100	C[C@H](CCN1CC[C@H](CC(F)F)C1)[C@H]1CC[C@H]2/C(=C/C=C3C[C@@H](O)C[C@H](O)C3)CCC[C@]12C [Compound B082, (1R,3R)-5-(2-((1R,3aS,7aR,E)-1-((R)-4-((R)-3-(2,2-difluoroethyl)pyrrolidin-1-yl)butan-2-yl)-7a-methyloctahydro-4H-inden-4-ylidene)ethylidene)cyclohexane-1,3-diol]	≥ 20
1 to 10	C[C@H](CCN1CCOC2(CC2)C1)[C@H]1CC[C@H]2/C(=C/C=C3C[C@@H](O)C[C@H](O)C3)CCC[C@]12C [Compound D030, (1R,3R)-5-(2-((1R,3aS,7aR,E)-1-((R)-4-(4-oxa-7-azaspiro[2.5]octan-7-yl)butan-2-yl)-7a-methyloctahydro-4H-inden-4-ylidene)ethylidene)cyclohexane-1,3-diol]	≥ 20
10 to 100	C=C1/C(=C\C=C2/CCC[C@]3(C)[C@@H]([C@H](C)CN4CCC[C@H](C(C)(F)F)C4)CC[C@@H]23)C[C@@H](O)C[C@@H]1O [Compound C052, (1R,3S,Z)-5-(2-((1R,3aS,7aR,E)-1-((S)-1-((S)-3-(1,1-difluoroethyl)piperidin-1-yl)propan-2-yl)-7a-methyloctahydro-4H-inden-4-ylidene)ethylidene)-4-methylenecyclohexane-1,3-diol]	≥ 20
10 to 100	C=C1/C(=C\C=C2/CCC[C@]3(C)[C@@H]([C@@H](C)CN4CCOCC4)CC[C@@H]23)C[C@@H](O)[C@H](C)[C@@H]1O [Compound D003, (1R,2S,3S,Z)-2-methyl-5-(2-((1R,3aS,7aR,E)-7a-methyl-1-((R)-1-morpholinopropan-2-yl)octahydro-4H-inden-4-ylidene)ethylidene)-4-methylenecyclohexane-1,3-diol]	≥ 20
10 to 100	C=C1[C@H](O)CC(=C/C=C2\CCC[C@]3(C)[C@@H]([C@H](C)CN4CC[C@H](C)C4)CC[C@@H]23)C[C@H]1O [Compound B002, (1R,3R)-5-(2-((1R,3aS,7aR,E)-7a-methyl-1-((S)-1-((S)-3-methylpyrrolidin-1-yl)propan-2-yl)octahydro-4H-inden-4-ylidene)ethylidene)-2-methylenecyclohexane-1,3-diol]	≥ 20
10 to 100	C=C1[C@H](O)CC(=C/C=C2\CCC[C@]3(C)[C@@H]([C@H](C)CCN4CCOC[C@@H]4C)CC[C@@H]23)C[C@H]1O [Compound D032, (1R,3R)-5-(2-((1R,3aS,7aR,E)-7a-methyl-1-((R)-4-((S)-3-methylmorpholino)butan-2-yl)octahydro-4H-inden-4-ylidene)ethylidene)-2-methylenecyclohexane-1,3-diol]	≥ 20
1 to 10	C=C1C(O)CC(=C/C=C2\CCC[C@]3(C)[C@@H]([C@H](C)CN4CC[C@H](OC(F)(F)F)C4)CC[C@@H]23)C[C@H]1O (stereo in doubt) [Compound B067, (1R,3S)-5-(2-((1R,3aS,7aR,E)-7a-methyl-1-((S)-1-((S)-3-(trifluoromethoxy)pyrrolidin-1-yl)propan-2-yl)octahydro-4H-inden-4-ylidene)ethylidene)-2-methylenecyclohexane-1,3-diol]	≥ 20
1 to 10	C=C1[C@H](O)CC(=C/C=C2\CCC[C@]3(C)[C@@H]([C@H](C)CCN4CCOC[C@H]4C)CC[C@@H]23)C[C@H]1O [Compound D031, (1R,3R)-5-(2-((1R,3aS,7aR,E)-7a-methyl-1-((R)-4-((R)-3-methylmorpholino)butan-2-yl)octahydro-4H-inden-4-ylidene)ethylidene)-2-methylenecyclohexane-1,3-diol]	≥ 20
1 to 10	C=C1[C@H](O)CC(=C/C=C2\CCC[C@]3(C)[C@@H]([C@H](C)CN4CC[C@H](CCC(F)F)C4)CC[C@@H]23)C[C@H]1O [Compound B061, (1R,3R)-5-(2-((1R,3aS,7aR,E)-1-((S)-1-((S)-3-(3,3-difluoropropyl)pyrrolidin-1-yl)propan-2-yl)-7a-methyloctahydro-4H-inden-4-ylidene)ethylidene)-2-methylenecyclohexane-1,3-diol]	≥ 20
1 to 10	C=C1[C@H](O)CC(=C/C=C2\CCC[C@]3(C)[C@@H]([C@H](C)CN4CCOC5(CCCC5)C4)CC[C@@H]23)C[C@H]1O [Compound D012, (1R,3R)-5-(2-((1R,3aS,7aR,E)-1-((S)-1-(6-oxa-9-azaspiro[4.5]decan-9-yl)propan-2-yl)-7a-methyloctahydro-4H-inden-4-ylidene)ethylidene)-2-methylenecyclohexane-1,3-diol]	≥ 20
